Assay results as given in patent US20180371076A1, “MATERNAL TH17 CELLS AND PSYCHIATRIC DISORDERS” (New York University, priority 2017, published 2018).

B1: recombinant IL-17a protein: Recombinant mouse IL-17a cytokine (R&D), injected into the fetal brain ventricle (protein, UniProt Q62386 26-158, looked up)
Interleukin-17A: AAIIPQSSACPNTEAKDFLQNVKVNLKVFNSLGAKVSSRRPSDYLNRSTSPWTLHRNEDPDRYPSVIWEAQCRHQRCVNAEGKLDHHMNSVLIQQEILVLKREPESCPFTFRVEKMLVGVGCTCVASIVRQAA

Assays:
Th17 cells = assay: Flow cytometry of placenta/decidua CD4+ T cells: Th17; assay type: in vivo, mouse; settings: poly(I:C) vs PBS treatment, pregnant dams
Protocol: Cell preparation, Flow cytometry, ELISA Embryos at each implantation site were dissected in ice-cold HBSS containing Ca2+ and Mg2+ (Gibco). Myometrium was first peeled off of the decidua and embryos were discarded. Dissected decidual and placental tissues were then minced and enzymatically dissociated in HBSS containing 0.28 Wunsch units (WU)/mL Liberase (Roche) and 30 μg/mL DNase I (Roche) for 30 min at 37° C. with intermittent mixing. Digested tissues were washed in PBS containing 5 mM EDTA and 5% fetal bovine serum and then incubated again in the same buffer for 15 min at 37° C. prior to filtration through a cell strainer. […] Intracellular cytokine staining was performed according to the manufacturer's protocol (Cytofix/Cytoperm buffer set from BD with Pacific Blue-conjugated CD4, FITC or PerCP-Cy5.5-conjugated CD8, APC4 Cy7-conjugated TCR-β, PE-Cy7-conjugated anti-IL-17a, PE-conjugated anti-IFN-γ, PECy7-conjugated anti-CD25 and PE-conjugated Foxp3 (eBioscience). LSR II (BD Biosciences) and FlowJo software (Tree Star) were used for flow cytometry and analysis. Dead cells were excluded using the Live/Dead fixable aqua dead cell stain kit (Invitrogen). For ELISA with sera and placenta/decidua extract, IL-6 (Ebioscience), IL-17a, TNF-α, IL-1β, IFN-β (Biolgened), and IL-10 (BD) were measured according to the manufacturer's protocol.

[1] = tested on: offspring of pregnant mice (MIA mouse model); assay: Marble burying test in adult offspring; assay type: in vivo
Excerpt: Maternal Immune Activation. Mice were mated overnight and females were checked daily for the presence of seminal plugs, noted as embryonic day 0.5 (E0.5). […] Each dam was returned to its cage and left undisturbed until the birth of its litter. All pups remained with the mother until weaning on postnatal day 21 (P21), at which time mice were group housed at maximum 5 per cage with same-sex littermates. […]
(§1) Marble burying test. […] At the end of a 15-min exploration period, mice were gently removed from the testing cages and the number of marbles buried was recorded. A marble burying index was scored as 1 for marbles covered >50% by bedding, 0.5 for ˜50% covered, or 0 for anything less. […]
as §1, with “test One week following the social approach task, male mice were acclimated for 0.5-1 h in separate clean holding cages.” for “test.”

Molecule	placenta/decidua-associated Th17 cells (Th17 cells)	marble burying in adult offspring ([1]; poly(I:C)-injected vs PBS-injected mothers)	marble burying behavior ([1]; intra-ventricular injection at E14.5, compared with sham injection)
poly(I:C)	increased	enhanced marble burying	–
B1	–	–	increased marble burying behavior
